# Measured values taken from PubChem BioAssay (NCI).
#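 All cell lines were grown in 96-well plates and treated with compound for 48 hours. TGI: total growth inhibition.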
# How the values were obtained:
# Assay in all cases: growth of human tumour cells (NCI), 48 h
# [1] = system: CAKI-1 renal
# [2] = system: HT29 colon
# [3] = system: HCC-2998 colon
# [4] = system: RPMI-8226 leukemia
# [5] = system: OVCAR-8 ovarian
# [6] = system: SK-MEL-28 melanoma
# [7] = system: XF 498 CNS
# [8] = system: RXF-631 renal
# [9] = system: HOP-62 NSCLC
# [10] = system: DLD-1 colon
# [11] = system: HCT-15 colon
# [12] = system: 786-0 renal
# [13] = system: IGROV1 ovarian
# [14] = system: NCI-H226 lung
# [15] = system: OVCAR-5 ovarian
# [16] = system: HOP-92 NSCLC
# [17] = system: OVCAR-4 ovarian
# [18] = system: SNB-78 CNS
# [19] = system: CCRF-CEM leukemia
# [20] = system: SF-539 CNS
# [21] = system: SF-268 CNS
# [22] = system: ACHN renal
# [23] = system: DMS 114 small cell lung
# [24] = system: SK-OV-3 ovarian
# [25] = system: UACC-62 melanoma
# [26] = system: M14 melanoma
# [27] = system: KM12 colon
# [28] = system: COLO 205 colon
# [29] = system: OVCAR-3 ovarian
# [30] = system: SK-MEL-2 melanoma
# [31] = system: U251 CNS
# [32] = system: SK-MEL-5 melanoma
# [33] = system: SNB-75 CNS
# [34] = system: HCT-116 colon
# [35] = system: SN12C renal
# [36] = system: KM20L2 colon
# [37] = system: SF-295 CNS
# [38] = system: UACC-257 melanoma
# [39] = system: NCI-H460 lung
# [40] = system: TK-10 renal
# [41] = system: HOP-18 NSCLC
# [42] = system: M19-MEL melanoma
# [43] = system: NCI-H23 lung
# [44] = system: MALME-3M melanoma
# [45] = system: A498 renal
# [46] = system: EKVX NSCLC
# [47] = system: SNB-19 CNS
# [48] = system: MOLT-4 leukemia
# [49] = system: A549 NSCLC
# [50] = system: LOX IMVI melanoma
# [51] = system: UO-31 renal
# [52] = system: K-562 leukemia
# [53] = system: SW-620 colon
# [54] = system: DMS 273 small cell lung
# [55] = system: NCI-H522 lung
# [56] = system: LXFL 529 NSCLC
# [57] = system: HL-60(TB) leukemia
# [58] = system: RXF 393 renal
structure (smiles),measurement,setting,value
COc1ccc(/C=C2\C(=O)N(NC(C)=O)c3ccccc32)cc1,TGI,[1],> 100 µM
same,TGI,[2],> 100 µM
same,TGI,[3],> 100 µM
same,TGI,[4],> 100 µM
same,TGI,[5],> 100 µM
same,TGI,[6],> 100 µM
same,TGI,[7],> 100 µM
same,TGI,[8],> 100 µM
same,TGI,[9],> 100 µM
same,TGI,[10],> 100 µM
same,TGI,[11],> 100 µM
same,TGI,[12],> 100 µM
same,TGI,[13],> 100 µM
same,TGI,[14],> 100 µM
same,TGI,[15],> 100 µM
same,TGI,[16],> 100 µM
same,TGI,[17],> 100 µM
same,TGI,[18],> 100 µM
same,TGI,[19],> 100 µM
same,TGI,[20],> 100 µM
same,TGI,[21],> 100 µM
same,TGI,[22],> 100 µM
same,TGI,[23],> 100 µM
same,TGI,[24],> 100 µM
same,TGI,[25],> 100 µM
same,TGI,[26],> 100 µM
same,TGI,[27],> 100 µM
same,TGI,[28],> 100 µM
same,TGI,[29],> 100 µM
same,TGI,[30],> 100 µM
same,TGI,[31],> 100 µM
same,TGI,[32],> 100 µM
same,TGI,[33],93.8 µM
same,TGI,[34],> 100 µM
same,TGI,[35],> 100 µM
same,TGI,[36],> 100 µM
same,TGI,[37],> 100 µM
same,TGI,[38],> 100 µM
same,TGI,[39],> 100 µM
same,TGI,[40],> 100 µM
same,TGI,[41],> 100 µM
same,TGI,[42],> 100 µM
same,TGI,[43],> 100 µM
same,TGI,[44],> 100 µM
same,TGI,[45],> 100 µM
same,TGI,[46],> 100 µM
same,TGI,[47],> 100 µM
same,TGI,[48],> 100 µM
same,TGI,[49],> 100 µM
same,TGI,[50],> 100 µM
same,TGI,[51],> 100 µM
same,TGI,[52],> 100 µM
same,TGI,[53],> 100 µM
same,TGI,[54],> 100 µM
Cc1nc2ccccc2c(=O)n1/N=C(\N=Nc1ccccc1Cl)c1ccccc1Cl,TGI,[1],63.4 µM
same,TGI,[2],> 100 µM
same,TGI,[4],> 100 µM
same,TGI,[5],> 100 µM
same,TGI,[6],> 100 µM
same,TGI,[7],26.8 µM
same,TGI,[8],> 100 µM
same,TGI,[9],> 100 µM
same,TGI,[10],> 100 µM
same,TGI,[11],> 100 µM
same,TGI,[12],> 100 µM
same,TGI,[13],> 100 µM
same,TGI,[16],43.7 µM
same,TGI,[19],> 100 µM
same,TGI,[20],> 100 µM
same,TGI,[21],> 100 µM
same,TGI,[22],> 100 µM
same,TGI,[23],> 100 µM
same,TGI,[24],64.4 µM
same,TGI,[25],> 100 µM
same,TGI,[26],> 100 µM
same,TGI,[28],> 100 µM
same,TGI,[31],> 100 µM
same,TGI,[32],> 100 µM
same,TGI,[34],> 100 µM
same,TGI,[35],> 100 µM
same,TGI,[36],> 100 µM
same,TGI,[39],> 100 µM
same,TGI,[40],> 100 µM
same,TGI,[41],> 100 µM
same,TGI,[42],> 100 µM
same,TGI,[43],> 100 µM
same,TGI,[55],98.4 µM
same,TGI,[56],> 100 µM
same,TGI,[45],> 100 µM
same,TGI,[46],> 100 µM
same,TGI,[48],> 100 µM
same,TGI,[57],> 100 µM
same,TGI,[49],> 100 µM
same,TGI,[50],> 100 µM
same,TGI,[51],> 100 µM
same,TGI,[58],40.5 µM
same,TGI,[52],> 100 µM
same,TGI,[53],> 100 µM
same,TGI,[54],> 100 µM
